The record followed here is BindingDB's records for doi:10.1074/jbc.M512374200 (German Cancer Research Center, 2006).

Test [1] deals with T1, Rho-associated protein kinase 2 (Bos taurus, UniProt Q28021). Description: Kinase Inhibition Assay. The method, then: The kinase activity was determined by incubation of enzyme and its substrate, and test compound, in the presence ATP/[gamma-33P] ATP. After incubation, the reaction was stopped, and the 33P-phosphorylated substrate was determined by scintillation counting.
T1 sequence (Q28021 whole entry): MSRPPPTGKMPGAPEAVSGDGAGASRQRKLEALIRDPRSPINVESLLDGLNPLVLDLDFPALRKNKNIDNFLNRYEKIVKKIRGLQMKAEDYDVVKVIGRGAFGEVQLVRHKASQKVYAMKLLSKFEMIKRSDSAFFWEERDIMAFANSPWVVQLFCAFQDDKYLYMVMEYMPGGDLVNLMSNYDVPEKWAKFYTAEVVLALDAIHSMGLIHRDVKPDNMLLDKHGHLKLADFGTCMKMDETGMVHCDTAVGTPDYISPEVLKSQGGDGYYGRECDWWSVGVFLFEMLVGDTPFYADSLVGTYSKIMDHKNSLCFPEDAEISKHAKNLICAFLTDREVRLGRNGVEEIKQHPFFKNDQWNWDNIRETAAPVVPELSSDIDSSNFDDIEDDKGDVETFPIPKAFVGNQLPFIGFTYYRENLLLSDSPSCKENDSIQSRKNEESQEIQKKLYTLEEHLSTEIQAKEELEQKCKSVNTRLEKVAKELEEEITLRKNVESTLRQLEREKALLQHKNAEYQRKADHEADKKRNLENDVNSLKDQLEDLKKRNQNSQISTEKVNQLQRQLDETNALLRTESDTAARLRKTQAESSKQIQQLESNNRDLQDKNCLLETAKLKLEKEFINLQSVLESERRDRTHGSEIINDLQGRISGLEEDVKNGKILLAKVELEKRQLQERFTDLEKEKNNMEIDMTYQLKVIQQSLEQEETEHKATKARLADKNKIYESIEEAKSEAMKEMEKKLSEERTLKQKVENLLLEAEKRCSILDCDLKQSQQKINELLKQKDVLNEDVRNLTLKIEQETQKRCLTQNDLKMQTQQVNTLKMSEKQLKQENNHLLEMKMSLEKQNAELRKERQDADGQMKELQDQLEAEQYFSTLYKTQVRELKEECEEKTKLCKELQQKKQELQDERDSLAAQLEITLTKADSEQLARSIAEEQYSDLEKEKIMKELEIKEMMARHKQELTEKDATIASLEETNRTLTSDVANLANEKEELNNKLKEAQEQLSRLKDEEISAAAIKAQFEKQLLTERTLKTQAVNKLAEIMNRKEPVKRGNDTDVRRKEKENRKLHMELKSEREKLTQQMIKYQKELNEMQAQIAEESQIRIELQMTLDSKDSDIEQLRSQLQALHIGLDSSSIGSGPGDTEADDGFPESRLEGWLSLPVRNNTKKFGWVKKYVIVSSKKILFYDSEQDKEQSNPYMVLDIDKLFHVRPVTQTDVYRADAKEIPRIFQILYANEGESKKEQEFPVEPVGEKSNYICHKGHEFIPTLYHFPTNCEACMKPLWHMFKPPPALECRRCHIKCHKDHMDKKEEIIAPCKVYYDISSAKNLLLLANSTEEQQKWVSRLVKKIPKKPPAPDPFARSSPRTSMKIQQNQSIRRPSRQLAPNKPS

In test [2] the target is cAMP-dependent protein kinase catalytic subunit alpha [L49I] (Bos taurus, UniProt P00517, L49I). Briefly: Kinase Activity Assay. The following applies: pH 6.8; 25 °C. Here is the method: (§1) The enzyme activity was assayed by using an ATP regenerative NADH consuming system. The reaction was started with adding ATP to the mixture containing enzyme, substrate, and inhibitor. The decrease of NADH was time-dependent, and was measured at 340 nm with three independent measurements per data point. IC50 values were calculated using SigmaPlot 8.0 and Origin 5 software.

Test [3] concerns the target cAMP-dependent protein kinase catalytic subunit alpha [L49I,Q181K,T183A] (Bos taurus, UniProt P00517, L49I/Q181K/T183A). Briefly: Kinase Activity Assay. The method, then: as §1
In test [4] the target is cAMP-dependent protein kinase catalytic subunit alpha [Q181K,T183A] (Bos taurus, UniProt P00517, Q181K/T183A). Briefly: Kinase Activity Assay. Here is the method: as §1
Test [5] has as its target cAMP-dependent protein kinase catalytic subunit alpha [E127D] (Bos taurus, UniProt P00517, E127D). Description: Kinase Activity Assay. The method, then: as §1
The target in test [6] is cAMP-dependent protein kinase catalytic subunit alpha [L49I,V123M,Q181K,T183A] (Bos taurus, UniProt P00517, L49I/Q181K/T183A/V123M). Description: Kinase Activity Assay. The method, then:
as §1

The target in test [7] is cAMP-dependent protein kinase catalytic subunit alpha [L49I,T183A] (Bos taurus, UniProt P00517, L49I/T183A). Description: Kinase Activity Assay. The method, then:
as §1

The target in test [8] is cAMP-dependent protein kinase catalytic subunit alpha [V123M] (Bos taurus, UniProt P00517, V123M). Description: Kinase Activity Assay. The following applies: pH 6.8; 25 °C. Here is the method:
as §1

Test [9] has as its target cAMP-dependent protein kinase catalytic subunit alpha [L49I,V123M,E127D,Q181K,T183A] (Bos taurus, UniProt P00517, E127D/L49I/Q181K/T183A/V123M). Description: Kinase Activity Assay. Here is the method:
as §1

Test [10] deals with cAMP-dependent protein kinase catalytic subunit alpha [V123M,T183A] (Bos taurus, UniProt P00517, T183A/V123M). Description: Kinase Activity Assay. Here is the method: as §1
Test [11] has as its target T1, Rho-associated protein kinase 2. Description: Kinase Activity Assay. Here is the method:
as §1

Test [12] addresses cAMP-dependent protein kinase catalytic subunit alpha [T183A] (Bos taurus, UniProt P00517, T183A). Briefly: Kinase Activity Assay. Here is the method: as §1
Test [13] has as its target cAMP-dependent protein kinase catalytic subunit alpha (Bos taurus, UniProt P00517). Briefly: Kinase Activity Assay. The following applies: pH 6.8; 25 °C. The method, then: as §1
Test [14] deals with cAMP-dependent protein kinase catalytic subunit alpha [V123M,Q181K,T183A] (Bos taurus, UniProt P00517, Q181K/T183A/V123M). Description: Kinase Activity Assay. Here is the method: as §1

A word on the pIC50: it is the negative decadic logarithm of the IC50, by convention in mol/L.

pIC50: −log10 of the molar value.

`CN[C@@H]1C[C@H]2O[C@@](C)([C@@H]1OC)n1c3ccccc3c3c4c(c5c6ccccc6n2c5c31)C(=O)NC4`: the negative-log IC50 (pIC50) in [1] is 8.92.
In the case of `C[C@@H](N)[C@H]1CC[C@H](C(=O)Nc2ccncc2)CC1` [4-[(1R)-1-aminoethyl]-N-(pyridin-4-yl)cyclohexane-1-carboxamide], the pIC50 in test [2] is 4.55; in test [3] it was 5.22; in test [4], 5.05; in test [5] it was 4.80; in test [6], 4.74; in test [7], 4.92. Besides, the negative logarithm of the IC50 (pIC50) in [8] is 4.22; in [9], 5.22; in test [10], 4.51; in [11] it was 6.30; in test [12] it was 5.05; in [13] it was 4.38. In addition, the negative logarithm of the IC50 (pIC50) in [14] was 4.60.
For `O=S(=O)(c1cccc2cnccc12)N1CCCNCC1` [AT877], in test [11], the pIC50 was 6.31.
Take `Cc1cncc2cccc(S(=O)(=O)N3CCCNC[C@@H]3C)c12` [H-1152]: the negative logarithm of the IC50 (pIC50) in test [2] is 6.37; in [4], 6.96; in test [5] it was 6.31; in test [6], 7.05; in [8], 5.82; in test [10], 6.53. For the same compound, the pIC50 in test [11] is above 7.35; in [12] it was 6.96; in test [13] it was 6.40; in [14], 6.65.
Take `CCCCCCOC(=O)[C@]1(O)C[C@@H]2O[C@@]1(C)n1c3ccccc3c3c4c(c5c6ccccc6n2c5c31)C(=O)NC4` [hexyl (15R,16S,18S)-16-hydroxy-15-methyl-3-oxo-28-oxa-4,14,19-triazaoctacyclo[12.11.2.1^{15,18}.0^{2,6}.0^{7,27}.0^{8,13}.0^{19,26}.0^{20,25}]octacosa-1(26),2(6),7(27),8(13),9,11,20(25),21,23-nonaene-16-carboxylate]: the negative logarithm of the IC50 (pIC50) is 4.99 in test [2]; 5.26 in [3]; above 7.35 in test [4]; 5.74 in test [5]; 5.70 in test [6]; 6.65 in [8]. The pIC50 was 5.89 in test [9]; 5.74 in test [11]; above 7.35 in test [12]; 7.25 in [13]; 7.17 in test [14].
